“And” between values parts separate entries of the source, which are not always exact repeats. Identical values can stand only once. Counter-ions that a name gives are not always drawn. Like-named read-outs stand apart in the source and are kept apart here.
Experiments:
total serum testosterone = details: for effect on total serum testosterone (in words): baboons; for effect on total serum testosterone (in words) / Serum Testosterone Levels, 12 days, group mean: 1.5 mg/kg for 12 days; for Serum Testosterone Levels, 6 days / Serum Testosterone Levels, 12 days / Serum Testosterone Levels, wash-out / Serum Testosterone Levels, baseline / Serum Testosterone Levels, 0 day: individual baboon; for Serum Testosterone Levels, 6 days / Serum Testosterone Levels, 6 days, group mean: 1.5 mg/kg daily, day 6; for Serum Testosterone Levels, 6 days / Serum Testosterone Levels, 12 days: 1.5 mg/kg; for Serum Testosterone Levels, 12 days: 1.5 mg/kg for 12 consecutive days; for Serum Testosterone Levels, 12 days / Serum Testosterone Levels, 12 days, group mean: day 12; for Serum Testosterone Levels, wash-out / Serum Testosterone Levels, wash-out, group mean: 7 days after the last treatment; for Serum Testosterone Levels, baseline: baseline Dec. 3, 2001, before treatment; for Serum Testosterone Levels, 0 day / Serum Testosterone Levels, 0 day, group mean: day 0, before first dose; for Serum Testosterone Levels, 6 days, group mean / Serum Testosterone Levels, 12 days, group mean / Serum Testosterone Levels, wash-out, group mean / Serum Testosterone Levels, baseline, group mean / Serum Testosterone Levels, 0 day, group mean: mean of 3 baboons; for Serum Testosterone Levels, baseline, group mean: before treatment
Description: (§4) The samples analyzed were sera taken on the day of first treatment before being given test article (day 0), after 12 days of treatment (day 12) and 7 days after the last treatment (end or wash-out).

serum cholesterol = details: baboons, 1.5 mg/kg for 12 days
serum LH = test: Androxal vs Androgel in hypogonadal men: serum LH; format: in vivo, human
Description: (§1) Half of the men in each of the Androxal™ and placebo arms were randomized into cohorts that underwent in-clinic sessions on days 1 and 14 to determine pharmacokinetic parameters for Androxal™ as well as cyclical changes in testosterone. The placebo and Androxal™ doses were administered in a double blind fashion. […] Following the two week drug exposure patients were followed for an additional seven to ten days to determine the status of their testosterone levels.

LH and FSH = test: Androxal vs Testim, 6 month spermatogenesis trial: LH and FSH; format: in vivo, human; details: secondary hypogonadal men, 3 and 6 months of therapy
Description: (§2) The mean age of the subjects was 46 years and mean body weight was 233 pounds. […] Subjects were required to discontinue topical exogenous testosterone for at least 30 days prior to receiving study medication. Effects of the treatment on sperm parameters associated with fertility as well as on FSH and LH levels were evaluated following 3 and 6 months of therapy and one month after cessation of treatment. Semen analysis included semen volume, total sperm count, sperm concentration, percent motility and percent normal morphology. There were 6 laboratory visits including a screening (V1), baseline (V2) and post first dose visits at 1 month (V3), 3 months (V4) and 6 months (V5) as well as a one month post therapy follow-up visit (V6).

[1] = Androxal vs Testim, 6 month spermatogenesis trial: tolerability; format: in vivo, human; details: 6 months of drug therapy
Description: as §2

triglycerides = test: Androxal vs Androgel in hypogonadal men: triglycerides; format: in vivo, human; details: men on Androxal, non-dose dependent, after two weeks of therapy
Description: as §1

testosterone = details: for 24 hr T <300 ng/dl @ Week 6 / Any T >1100 ng/dl @ Week 6: number of men
Description: Sixty men with testosterone levels not exceeding 350 ng/dl were enrolled in the study and randomized to one of four parallel arms: (i) 6.25 mg Androxal (ii) 12.5 mg Androxal (iii) 25 mg Androxal or (iv) Androgel. The average age of men in the study was 53.1 (10.1) and their average body mass index (BMI) was 31.8 (6.1). The men were dosed for 6 weeks and then followed for an additional 7 days after cessation of treatment. Subjects in all arms visited the clinic every 2 weeks for assessments. Twenty-four hour assessments were made at baseline before dosing commenced and after 6 weeks of treatment, at which point testosterone and LH were assessed hourly.

serum FSH = test: Androxal vs Androgel in hypogonadal men: serum FSH; format: in vivo, human; details: two weeks treatment and follow-up
Description: as §1

sperm counts = test: Androxal vs Testim, three month trial: sperm counts; format: in vivo, human
Description: (§3) Over 900 men were screened to achieve a total of 108 men who met all criteria and were enrolled in the study. All 108 men enrolled in the study satisfied the requirement of at least one dose and one visit in which efficacy measures could be assessed. The subjects were randomized into four groups: (i) placebo; (ii) 12.5 mg Androxal; (iii) 25 mg Androxal; and (iv) Testim. There was no statistical difference among the groups in testosterone at baseline.
Sperm counts were assessed at baseline and after dosing was completed. Spermatogenesis is approximately a 64 day cycle and detection of early changes after 3 months of treatment would be expected. At baseline, the median values of all four arms were above the generally accepted lower level of sperm counts for normal males (20 million sperm per ml). […] The median sperm count for the men in the combined Androxal arms was 93.8 million sperm/ml (p value=0.001 compared to Testim). […] No drug related serious adverse effects occurred that led to discontinuation.

morning testosterone = test: Androxal vs Testim, three month placebo-controlled trial: morning testosterone; format: in vivo, human; details: for Median Morning Testosterone, Baseline T: before dosing; for Median Morning Testosterone, Baseline T / Median Morning Testosterone, Final T: no unit in table; for Median Morning Testosterone, Final T: end of three month dosing
Description: as §3

total testosterone = test: Placebo controlled study of Androxal vs Androgel in hypogonadal men: testosterone; format: in vivo, human; details: for mean increase in testosterone from baseline: oral, two weeks
Description: as §1

[2] = test system: serum dihydroxytestosterone (DHT); test: Androxal vs Androgel in hypogonadal men: DHT to total testosterone ratio; format: in vivo, human; details: men on Androxal 50 mg; placebo group ratio 1.07
Description: as §1

[3] = Androxal vs Androgel in hypogonadal men: side effects; details: two week exposure
Description: as §1

[4] = Androxal vs Testim, three month trial: tolerability; format: in vivo, human; details: both doses (12.5 and 25 mg), three months
Description: as §3

serum testosterone = test: Androxal vs Testim, 6 month spermatogenesis trial: serum testosterone; format: in vivo, human; details: after 3 months of treatment, sustained for another 3 months
Description: as §2

serum prolactin (PRL) = test: Serum prolactin in male baboons; details: 1.5 mg/kg for 12 days
Description: as §4

[5] = three month dosing, Androxal arms combined, Testim arm

CCN(CC)CCOc1ccc(/C(=C(\Cl)c2ccccc2)c2ccccc2)cc1 [Zuclomid, cis-Clomid]
hematocrit (baboons, 1.5 mg/kg for 12 days): demonstrated a statistical difference
red blood cell population (baboons, 1.5 mg/kg for 12 days): substantive effects on the red blood cell population
serum glucose (baboons, 1.5 mg/kg for 12 days): within the normal range
serum carbon dioxide (baboons, day 12): higher than reference values
serum alkaline phosphatase (ALP) (baboons, following treatment): not elevated
ALT/SGPT (baboons, over the treatment period / end of the study): within the normal range
effect on total serum testosterone (in words) (total serum testosterone): did not raise total serum testosterone to any extent
Serum Testosterone Levels, 6 days (total serum testosterone): 137.51 ng/dL and 169.98 ng/dL and 227.95 ng/dL
Serum Testosterone Levels, 12 days (total serum testosterone): 314.5 ng/dL and 406.1 ng/dL and 353.0 ng/dL
Serum Testosterone Levels, wash-out (total serum testosterone): 359.7 ng/dL and 860.5 ng/dL and 274.1 ng/dL
Serum Testosterone Levels, baseline (total serum testosterone): 124.84 ng/dL and 104.66 ng/dL and 282.29 ng/dL
Serum Testosterone Levels, 0 day (total serum testosterone): 210.4 ng/dL and 67.37 ng/dL and 904.82 ng/dL
Serum Testosterone Levels, 6 days, group mean (total serum testosterone): 178.5 ng/dL
Serum Testosterone Levels, 12 days, group mean (total serum testosterone): 357.9 ng/dL
Serum Testosterone Levels, wash-out, group mean (total serum testosterone): 498.1 ng/dL
Serum Testosterone Levels, baseline, group mean (total serum testosterone): 170.6 ng/dL
Serum Testosterone Levels, 0 day, group mean (total serum testosterone): 394.2 ng/dL
increase in serum cholesterol levels (serum cholesterol): 22%

CCN(CC)CCOc1ccc(/C(=C(\Cl)c2ccccc2)c2ccccc2)cc1 [Androxal™, trans-clomiphene]
serum LH in the follow-up period (serum LH; 7-10 days after cessation of treatment): remained high
serum levels of LH during treatment (serum LH; hypogonadal men, two weeks treatment): statistically significant increase
LH and FSH levels (LH and FSH): significantly increased both LH and FSH
tolerability [1]: well tolerated by all subjects
reduction in triglycerides, average (triglycerides): 19.1%
24 hr T <300 ng/dl @ Week 6 (testosterone; Androxal 6.25 mg): 4 out of 12
Any T >1100 ng/dl @ Week 6 (testosterone; Androxal 6.25 mg): 0 out of 12
24 hr T <300 ng/dl @ Week 6 (testosterone; Androxal 12.5 mg): 2 out of 10
Any T >1100 ng/dl @ Week 6 (testosterone; Androxal 12.5 mg): 0 out of 10
24 hr T <300 ng/dl @ Week 6 (testosterone; Androxal 25 mg): 0 out of 13
Any T >1100 ng/dl @ Week 6 (testosterone; Androxal 25 mg): 0 out of 13
morning testosterone after the seven day follow-up (in words) (testosterone; all Androxal arms (6.25, 12.5, 25 mg)): improved morning testosterone compared to baseline
serum levels of FSH (serum FSH): boosts serum FSH which remains high during the follow-up period
change in sperm counts from baseline (in words) (sperm counts; end of the three month dosing period): no statistically significant changes
median sperm count (sperm counts; end of three month dosing, Androxal arms combined, Testim arm): 93.8 million sperm/ml
Median Morning Testosterone, Baseline T (morning testosterone; Androxal 12.5 mg (n = 26), text uses ng/dl): 202
Median Morning Testosterone, Final T (morning testosterone; Androxal 12.5 mg (n = 26)): 432
Median Morning Testosterone, Baseline T (morning testosterone; Androxal 25 mg (n = 30)): 202
Median Morning Testosterone, Final T (morning testosterone; Androxal 25 mg (n = 30)): 416
men exceeding the normal maximum level of testosterone (1100 ng/dl) (morning testosterone; [5]): no men
men in the normal range for morning testosterone levels (300-1100 ng/dl) (morning testosterone; [5]): 69.9%
serum total testosterone in the follow-up period (total testosterone; 7-10 days after cessation of daily oral treatment): unexpectedly remained high
mean total testosterone (total testosterone; hypogonadal men, Androxal 50 mg, after 15 days): 589 ± 172 ng/dL
mean increase in testosterone from baseline (total testosterone; hypogonadal men, Androxal high dose (50 mg)): 294 ng/dL
mean increase in testosterone from baseline (total testosterone; hypogonadal men, Androxal low dose (12.5 mg)): 169 ng/dL
mean increase in testosterone from baseline (total testosterone; hypogonadal men, Androxal mid dose (25 mg)): 247 ng/dL
DHT/TT ratio [2]: 0.83
side effects different than placebo [3]: no side effects noted
tolerability compared to placebo [4]: generally well tolerated
mean serum testosterone (serum testosterone): statistically significant rise

CCN(CC)CCOc1ccc(/C(=C(/Cl)c2ccccc2)c2ccccc2)cc1 [Enclomid, trans-Clomid]
serum prolactin (PRL) during the study (serum prolactin (PRL)): decrease in serum prolactin (PRL)
ALT/SGPT (in vivo): within the normal range
BUN and BUN/creatinine (in vivo): altered during the study
per cent of granulocytes in the blood (in vivo): lowering the per cent of granulocytes in the blood
platelet count (in vivo): pushed the platelet count to its normal male level
serum alkaline phosphatase (ALP) (in vivo): decreased in value
serum anion gap (in vivo): raised this parameter towards normal values
lymphocyte count and per cent lymphocytes (in vivo, 1.5 mg/kg): Both the count and per cent lymphocytes in the population increase
red blood cell population (in vivo, 1.5 mg/kg): substantive effects on the red blood cell population
serum glucose (in vivo, 1.5 mg/kg): no increases with treatment
effect on total serum testosterone (in words) (total serum testosterone): significantly and statistically raised total serum testosterone on days 6 and 12
Serum Testosterone Levels, 6 days (total serum testosterone): 1223.8 ng/dL and 1128.2 ng/dL and 1081.1 ng/dL
Serum Testosterone Levels, 12 days (total serum testosterone): 633.6 ng/dL and 1466 ng/dL and 1166 ng/dL
Serum Testosterone Levels, wash-out (total serum testosterone): 307.2 ng/dL and 399.2 ng/dL and 271 ng/dL
Serum Testosterone Levels, baseline (total serum testosterone): 64.57 ng/dL and 166.86 ng/dL and 170.45 ng/dL
Serum Testosterone Levels, 0 day (total serum testosterone): 74.96 ng/dL and 133.59 ng/dL and 106.47 ng/dL
Serum Testosterone Levels, 6 days, group mean (total serum testosterone): 1144.4 ng/dL
Serum Testosterone Levels, 12 days, group mean (total serum testosterone): 1088.5 ng/dL
Serum Testosterone Levels, wash-out, group mean (total serum testosterone): 325.8 ng/dL
Serum Testosterone Levels, baseline, group mean (total serum testosterone): 134.0 ng/dL
Serum Testosterone Levels, 0 day, group mean (total serum testosterone): 105.0 ng/dL
decrease in serum cholesterol levels (serum cholesterol): 8%

CCN(CC)CCOc1ccc(C(=C(Cl)c2ccccc2)c2ccccc2)cc1 [Clomid, clomiphene citrate]
ALT/SGPT (in vivo): out of range low at the end of the study
BUN and BUN/creatinine (in vivo): altered during the study
serum carbon dioxide (in vivo): higher than reference values
serum glucose (in vivo, 1.5 mg/kg): within the normal range
effect on total serum testosterone (in words) (total serum testosterone): more variable total testosterone levels on day 6 and later
Serum Testosterone Levels, 6 days (total serum testosterone; listed as CLO): 940.97 ng/dL and 585.92 ng/dL and 151.12 ng/dL
Serum Testosterone Levels, 12 days (total serum testosterone; listed as CLO): 891.5 ng/dL and 555.6 ng/dL and 318.9 ng/dL
Serum Testosterone Levels, wash-out (total serum testosterone; listed as CLO): 150.9 ng/dL and 316.3 ng/dL and 143.6 ng/dL
Serum Testosterone Levels, baseline (total serum testosterone; listed as CLO): 79.01 ng/dL and 97.55 ng/dL and 158.06 ng/dL
Serum Testosterone Levels, 0 day (total serum testosterone; listed as CLO): 76.15 ng/dL and 305.24 ng/dL and 102.94 ng/dL
Serum Testosterone Levels, 6 days, group mean (total serum testosterone): 559.3 ng/dL
Serum Testosterone Levels, 12 days, group mean (total serum testosterone): 588.7 ng/dL
Serum Testosterone Levels, wash-out, group mean (total serum testosterone): 203.6 ng/dL
Serum Testosterone Levels, baseline, group mean (total serum testosterone): 111.5 ng/dL
Serum Testosterone Levels, 0 day, group mean (total serum testosterone): 161.4 ng/dL
effect on serum cholesterol levels (in words) (serum cholesterol): slight increase

Reference: US20150031656A1, “COMBINATION THERAPY FOR TREATING ANDROGEN DEFICIENCY” (REPROS THERAPEUTICS INC., priority 2012, published 2015)
